Assay results: ChEMBL document CHEMBL3044897, “Pharmacophore-based predictive model generation for potent antimalarials targeting haem detoxification pathway” (Med Chem Res, 2007)

How the values were obtained:
Plasmodium falciparum [1] = assay: Antimalarial activity against chloroquine-resistant Plasmodium falciparum K1 assessed as incorporation of [3H]hypoxanthine after 48 hr microdilution method; format: functional, organism-based
Plasmodium falciparum [2] = assay: Antimalarial activity against chloroquine-sensitive Plasmodium falciparum 3D7 assessed as incorporation of [3H]hypoxanthine after 48 hr microdilution method; format: functional, organism-based
Heme = assay: Inhibition of heme polymerization in Plasmodium falciparum after 15 min by liquid scintillation counting analysis in presence of [14C]-hemin chloride

| Compound | IC50 (Plasmodium falciparum [1]) | IC50 (Plasmodium falciparum [2]) | IC50 (Heme) |
| --- | --- | --- | --- |
| CCN(CC)Cc1cc(Nc2ccnc3cc(Cl)ccc23)ccc1O | 18 nM | 7.8 nM | 15000 nM |
| CCN(CC)CCCC(C)Nc1ccncc1 (stereo unspecified) | 15000 nM | 12000 nM | 92000 nM |
| Oc1ccc(Nc2ccnc3cc(Cl)ccc23)cc1 | – | 1400 nM | 19000 nM |
| CCN(CC)Cc1cc(Nc2ccncc2)ccc1O | – | 680 nM | 72000 nM |
| O[C@@H](c1cc(C(F)(F)F)nc2c(C(F)(F)F)cccc12)[C@H]1CCCCN1 (relative stereo) [(S,R)-MEFLOQUINE] | 9.4 nM | 23 nM | 47000 nM |
| Oc1ccc(Nc2ccnc3cc(Cl)ccc23)cc1CN1CCCC1 [AMOPYROQUINE] | 12 nM | 5.3 nM | 30000 nM |
| NCc1cc(Nc2ccnc3cc(Cl)ccc23)ccc1O [BIDESETHYL AMODIAQUINE] | 170 nM | 21 nM | 73000 nM |
| CC(CCCN)Nc1ccnc2cc(Cl)ccc12 (stereo unspecified) [BIDESETHYL CHLOROQUINE] | – | 55 nM | 58000 nM |
| CCN(CC)CCCC(C)Nc1ccnc2cc(Cl)ccc12 (stereo unspecified) [CHLOROQUINE] | – | – | 24000 nM |
| C=C[C@H]1CN2CC[C@H]1C[C@H]2[C@H](O)c1ccnc2ccccc12 [CINCHONIDINE] | 91 nM | 40 nM | 27000 nM |
| C=C[C@H]1CN2CC[C@H]1C[C@@H]2[C@@H](O)c1ccnc2ccccc12 [CINCHONINE] | 56 nM | 21 nM | 23000 nM |
| CC(CCCN1CCCC1)Nc1ccnc2cc(Cl)ccc12 (stereo unspecified) [Chloroquine-pyrolidinyl] | – | 19 nM | 44000 nM |
| CCN(CC)Cc1cc(Nc2ccnc3cc(Cl)ccc23)cc(-c2ccc(Cl)cc2)c1 [DEHYDROXY TEBAQUINE] | – | 42 nM | 51000 nM |
| CCNCc1cc(Nc2ccnc3cc(Cl)ccc23)ccc1O [DESETHYL AMODIAQUINE] | 39 nM | 6.9 nM | 43000 nM |
| CCNCCCC(C)Nc1ccnc2cc(Cl)ccc12 (stereo unspecified) [DESETHYLCHLOROQUINE] | 720 nM | 19 nM | 45000 nM |
| CCCCN(CCCC)CCC(O)c1cc2c(Cl)cc(Cl)cc2c2cc(C(F)(F)F)ccc12 (stereo unspecified) [HALOFANTRINE] | 2.8 nM | 5.8 nM | 180000 nM |
| CC(C)(C)NCc1cc(Nc2ccnc3cc(Cl)ccc23)ccc1O [N-TERT-BUTYL-AMODIAQUINE] | 9.1 nM | 5.5 nM | 32000 nM |
| COc1ccc2nc3cc(Cl)ccc3c(Nc3cc(CN4CCCC4)c(O)c(CN4CCCC4)c3)c2n1 [PYRONARIDINE] | 9.1 nM | 5.7 nM | 64000 nM |
| CCN(CC)CCCC(C)Nc1c2ccc(Cl)cc2nc2ccc(OC)cc12 (stereo unspecified) [QUINACRINE] | – | 13 nM | 41000 nM |
| C=C[C@H]1CN2CC[C@H]1C[C@@H]2[C@@H](O)c1ccnc2ccc(OC)cc12 [QUINIDINE] | – | 21 nM | 24000 nM |
| C=C[C@H]1CN2CC[C@H]1C[C@H]2[C@H](O)c1ccnc2ccc(OC)cc12 [QUININE] | – | 34 nM | 65000 nM |
| CCN(CC)Cc1cc(Nc2ccnc3cc(Cl)ccc23)cc(-c2ccc(Cl)cc2)c1O [TEBAQUINE] | 13 nM | 9.5 nM | 53000 nM |
